The values that follow come from patent US8580785B2, “Insecticides” (Syngenta Crop Protection LLC, priority 2005, dated 2013).

As a reminder, the melting point is the temperature, or range, at which the solid turns liquid.

Structures are written as SMILES.

One data set has as its system Spodoptera littoralis. Kind of data set: Activity against Spodoptera littoralis. Particulars: 72 h, 400 ppm spray on young soya plants, 1st instar caterpillars, 3 days, read-out: percentage reduction in the population and in the feeding damage (% activity). Type of data set: in vivo. As to the method: Young soya plants are sprayed with an aqueous emulsion spray mixture comprising 400 ppm of active ingredient and, after the spray coating has dried on, populated with 10 caterpillars (1st instar) of Spodoptera littoralis and introduced into a plastic container. 3 days later, the percentage reduction in the population and in the feeding damage (% activity) are determined by comparing the number of dead caterpillars and the feeding damage between the treated and untreated plants.

A further data set deals with Plutella xylostella. Briefly: Activity against Plutella xylostella. Type of data set: in vivo. Particulars: 72 h, 400 ppm spray on young cabbage plants, 3rd instar caterpillars, 3 days, read-out: percentage reduction in the population and in the feeding damage (% activity). As to the method: Young cabbage plants are sprayed with an aqueous emulsion spray mixture comprising 400 ppm of active ingredient and, after the spray coating has dried on, populated with 10 caterpillars (3rd instar) of Plutella xylostella and introduced into a plastic container. 3 days later, the percentage reduction in the population and in the feeding damage (% activity) are determined by comparing the number of dead caterpillars and the feeding damage between the treated and untreated plants.

The test system of a further data set is Diabrotica balteata. Kind of data set: Activity against Diabrotica balteata (sprayed maize seedlings). The data set is classed as in vivo. As to conditions: 144 h, 400 ppm spray on maize seedlings, 2nd instar larvae, 6 days, read-out: percentage reduction in the population (% activity). How it is done:
Maize seedlings are sprayed with an aqueous emulsion spray mixture comprising 400 ppm of active ingredient and, after the spray coating has dried on, populated with 10 larvae (2nd instar) of Diabrotica balteata and introduced into a plastic container. 6 days later, the percentage reduction in the population (% activity) is determined by comparing the number of dead larvae between the treated and untreated plants.

With `CNC(=O)c1cc2[nH]cnc2c(Cl)c1NC(=O)c1cc(C(F)(F)F)nn1-c1ncccc1Cl`, the melting point lay in the range of 190 to 192 °C.
As to `O=C(NCC1CC1)c1cc2nccnc2c(Cl)c1NC(=O)c1cc(C(F)(F)F)nn1-c1ncccc1Cl` [Compound T1.1.14, 8-chloro-7-{[2-(3-chloro-pyridin-2-yl)-5-trifluoromethyl-2H-pyrazole-3-carbonyl]-amino}-quinoxaline-6-carboxylic acid cyclopropylmethyl-amide], the inhibition at 400 ppm in the data set on Spodoptera littoralis and with Plutella xylostella was over 80% throughout.
For the molecule `CNC(=O)c1cc2nc(C(F)(F)F)ccc2c(C)c1NC(=O)c1cc(C(F)(F)F)nn1-c1ncccc1Cl` [Compound T8.1.1, 6-{[2-(3-Chloro-pyridin-2-yl)-5-trifluoromethyl-2H-pyrazole-3-carbonyl]-amino}-5-methyl-2-trifluoromethyl-quinoline-7-carboxylic acid methyl amide], the melting point lay within 227 to 230 °C. For the same molecule, the inhibition at 400 ppm in the data set on Spodoptera littoralis was over 80%. Also, the inhibition at 400 ppm in the data set on Diabrotica balteata was over 80%. Besides, the inhibition at 400 ppm in the data set with Plutella xylostella was over 80%.
In the case of `CNC(=O)c1cc2nc(C(F)(F)F)ccc2c(Cl)c1NC(=O)c1cc(C(F)(F)F)nn1-c1ncccc1Cl` [Compound T8.1.2, 5-Chloro-6-{[2-(3-chloro-pyridin-2-yl)-5-trifluoromethyl-2H-pyrazole-3-carbonyl]-amino}-2-trifluoromethyl-quinoline-7-carboxylic acid methyl amide], the melting point was in the range of 233 to 237 °C. For the same molecule, the inhibition at 400 ppm in the data set on Spodoptera littoralis is over 80%. Besides, the inhibition at 400 ppm in the data set with Diabrotica balteata was over 80%. Moreover, the inhibition at 400 ppm in the data set on Plutella xylostella is over 80%.
For `CNC(=O)c1cc2nc(C(F)(F)F)ccc2c(OC)c1NC(=O)c1cc(C(F)(F)F)nn1-c1ncccc1Cl` [Compound T8.1.121, 6-{[2-(3-Chloro-pyridin-2-yl)-5-trifluoromethyl-2H-pyrazole-3-carbonyl]-amino}-5-methoxy-2-trifluoromethyl-quinoline-7-carboxylic acid methyl amide], the inhibition at 400 ppm in the data set on Spodoptera littoralis and in the data set on Plutella xylostella was over 80% throughout.
In the case of `CNC(=O)c1cc2nc(C(F)(F)F)ccc2cc1NC(=O)c1cc(Br)nn1-c1ncccc1Cl` [Compound T8.1.153, 6-{[5-Bromo-2-(3-chloro-pyridin-2-yl)-2H-pyrazole-3-carbonyl]-amino}-2-trifluoromethyl-quinoline-7-carboxylic acid methyl amide], the melting point is 120 to 127 °C. In addition, in the data set with Spodoptera littoralis, the inhibition at 400 ppm was over 80%. In addition, the inhibition at 400 ppm in the data set with Plutella xylostella is over 80%.
As to `Cc1nc2cc(C(=O)NC(C)C)c(NC(=O)c3cc(C(F)(F)F)nn3-c3ncccc3Cl)c(Cl)c2nc1C` [Compound T19.1.8, 8-chloro-7-{[2-(3-chloro-pyridin-2-yl)-5-trifluoromethyl-2H-pyrazole-3-carbonyl]-amino}-2,3-dimethyl-quinoxaline-6-carboxylic acid isopropylamide], in the data set with Spodoptera littoralis, the inhibition at 400 ppm was over 80%.
For `CNC(=O)c1cc2nsnc2c(Cl)c1NC(=O)c1cc(C(F)(F)F)nn1-c1ncccc1Cl` [Compound T20.1.2, 7-chloro-6-{[2-(3-chloro-pyridin-2-yl)-5-trifluoromethyl-2H-pyrazole-3-carbonyl]-amino}-benzo[1,2,5]thiadiazole-5-carboxylic acid methylamide], the inhibition at 400 ppm with Spodoptera littoralis and in the data set with Plutella xylostella was over 80% in each case.
On to `CC(C)NC(=O)c1cc2nsnc2c(Cl)c1NC(=O)c1cc(C(F)(F)F)nn1-c1ncccc1Cl` [Compound T20.1.8, 7-chloro-6-{[2-(3-chloro-pyridin-2-yl)-5-trifluoromethyl-2H-pyrazole-3-carbonyl]-amino}-benzo[1,2,5]thiadiazole-5-carboxylic acid isopropylamide], for which the inhibition at 400 ppm in the data set with Spodoptera littoralis and in the data set with Plutella xylostella was over 80% throughout.
In the case of `O=C(NCC1CC1)c1cc2nsnc2c(Cl)c1NC(=O)c1cc(C(F)(F)F)nn1-c1ncccc1Cl` [Compound T20.1.14, 7-chloro-6-{[2-(3-chloro-pyridin-2-yl)-5-trifluoromethyl-2H-pyrazole-3-carbonyl]-amino}-benzo[1,2,5]thiadiazole-5-carboxylic acid cyclopropylmethyl-amide], the inhibition at 400 ppm in the data set with Spodoptera littoralis and with Plutella xylostella was over 80% in each case.
Take `CC(C)NC(=O)c1cc2[nH]cnc2c(Cl)c1NC(=O)c1cc(C(F)(F)F)nn1-c1ncccc1Cl` [Compound T21.1.8, 7-chloro-6-{[2-(3-chloro-pyridin-2-yl)-5-trifluoromethyl-2H-pyrazole-3-carbonyl]-amino}-3H-benzoimidazole-5-carboxylic acid isopropylamide]: the melting point lay within 200 to 203 °C. In the data set with Spodoptera littoralis, the inhibition at 400 ppm is over 80%. Besides, the inhibition at 400 ppm in the data set with Plutella xylostella was over 80%.
`O=C(NCC1CC1)c1cc2[nH]cnc2c(Cl)c1NC(=O)c1cc(C(F)(F)F)nn1-c1ncccc1Cl` [Compound T21.1.14] yielded a melting point of 198 to 201 °C. The inhibition at 400 ppm in the data set on Plutella xylostella is over 80%.
With `Cn1cnc2cc(C(=O)NCC3CC3)c(NC(=O)c3cc(C(F)(F)F)nn3-c3ncccc3Cl)c(Cl)c21` [Compound T22.1.14], the melting point was 148 to 151 °C. Besides, in the data set on Spodoptera littoralis, the inhibition at 400 ppm was over 80%. For the same molecule, in the data set with Plutella xylostella, the inhibition at 400 ppm is over 80%.
For `Cc1nc2cc(C(=O)NCC3CC3)c(NC(=O)c3cc(C(F)(F)F)nn3-c3ncccc3Cl)c(Cl)c2n1C` [Compound T35.1.14], the melting point was in the range of 233 to 235 °C. In addition, in the data set on Spodoptera littoralis, the inhibition at 400 ppm is over 80%.
In the case of `CC(C)NC(=O)c1cc2nc(C3CC3)n(C)c2c(Cl)c1NC(=O)c1cc(C(F)(F)F)nn1-c1ncccc1Cl` [Compound T37.1.8, 7-chloro-6-{[2-(3-chloro-pyridin-2-yl)-5-trifluoromethyl-2H-pyrazole-3carbonyl]-amino}-2-cyclopropyl-1-methyl-1H-benzoimidazole-5-carboxylic acid isopropylamide], the melting point is 242 to 244 °C. Further, the inhibition at 400 ppm in the data set with Spodoptera littoralis is over 80%. For the same molecule, the inhibition at 400 ppm in the data set on Plutella xylostella is over 80%.
For the molecule `Cn1c(C2CC2)nc2cc(C(=O)NCC3CC3)c(NC(=O)c3cc(C(F)(F)F)nn3-c3ncccc3Cl)c(Cl)c21` [Compound T37.1.14], the melting point was 233 to 235 °C. Further, the inhibition at 400 ppm with Spodoptera littoralis was over 80%. Further, the inhibition at 400 ppm with Plutella xylostella is over 80%.
Take `CSC1=NC2C=C(C(=O)NCC3CC3)C(NC(=O)c3cc(C(F)(F)F)nn3-c3ncccc3Cl)=C(Cl)C2S1` (centres unmarked) [Compound T94.1.14, 7-chloro-6-{[2-(3-chloro-pyridin-2-yl)-5-trifluoromethyl-2H-pyrazole-3-carbonyl]-amino}-2-methylsulfanyl-3a,7a-dihydro-benzothiazole-5-carboxylic acid cyclopropylmethyl-amide]: the melting point was 221 to 223 °C. The inhibition at 400 ppm in the data set with Spodoptera littoralis was over 80%. Further, the inhibition at 400 ppm in the data set with Plutella xylostella was over 80%.
Take `COC1=NC2C=C(C(=O)NCC3CC3)C(NC(=O)c3cc(C(F)(F)F)nn3-c3ncccc3Cl)=C(Cl)C2S1` (centres unmarked) [Compound T115.1.14, 7-chloro-6-{[2-(3-chloro-pyridin-2-yl)-5-trifluoromethyl-2H-pyrazole-3-carbonyl]-amino}-2-methoxy-3a,7a-dihydro-benzothiazole-5-carboxylic acid cyclopropylmethyl-amide]: the inhibition at 400 ppm in the data set with Spodoptera littoralis and with Plutella xylostella was over 80% each time.
